Assay results as given in patent US12441695B2, “Substituted thiadiazinone dioxide and preparation method therefor, herbicidal composition, and application therefor” (Qingdao Kingagroot Chemical Compound Co., Ltd., priority 2019, dated 2025).

How the values were obtained:
[1] = test system: monocotyledonous and dicotyledonous weeds; experiment: Experiment on weeding effect in post-emergence stage (weeds); format: in vivo; details: 600 g/ha active ingredient plus water 450 kg/ha, 3 weeks after application, fresh weight control rate; for Amaranthus retroflexus activity level (growth control rate): fomesafen-resistant Amaranthus retroflexus
From the text: The activity level criteria for plant damage (i.e., growth control rate) are as follows: • Level 5: growth control rate is above 85%; • Level 4: growth control rate is greater than or equal to 60% and less than 85%; • Level 3: growth control rate is greater than or equal to 40% and less than 60%; • Level 2: growth control rate is greater than or equal to 20% and less than 40%; • Level 1: growth control rate is greater than or equal to […]; • Level 0: growth control rate is less than 5%.
(§1) The above growth control rates are fresh weight control rates.
(§2) (1) Experiment on weeding effect in post-emergence stage: monocotyledonous and dicotyledonous weed seeds and major crop seeds (wheat, corn, rice, soybean, cotton, oilseed rape, millet, sorghum) were placed in plastic pots filled with soil, then covered with 0.5-2 cm of soil, allowed to grow in a good greenhouse environment. After 2-3 weeks of sowing, the test plants were treated. The tested compounds of the present invention were respectively dissolved in acetone, then added with Tween 80, diluted with a certain amount of water to obtain a solution with a certain concentration, and sprayed with a spray tower onto the plants. After the application, the plants were cultured for 3 weeks in the greenhouse, and then the experimental results of the weeding were listed in Table 2.

[2] = test system: major crops (wheat, corn, rice, soybean, cotton, oilseed rape, millet, sorghum); experiment: Experiment on weeding effect in post-emergence stage (crops); format: in vivo; details: 600 g/ha active ingredient plus water 450 kg/ha, 3 weeks after application; for corn plant damage level (growth control rate): crop corn; for rice plant damage level (growth control rate): crop rice; for soybean plant damage level (growth control rate): crop soybean
Procedure: as §1
as §2, with “plants.” for “plants. After the application, the plants were cultured for 3 weeks in the greenhouse, and then the experimental results of the weeding were listed in Table 2.”

Row | SMILES | Amaranthus retroflexus activity level (growth control rate) [1] | corn plant damage level (growth control rate) [2] | rice plant damage level (growth control rate) [2] | soybean plant damage level (growth control rate) [2] | Digitaria sanguinalis activity level (growth control rate) [1] | Echinochloa crus-galli activity level (growth control rate) [1] | Setaria viridis activity level (growth control rate) [1]
1 | COc1ccc(CN2c3ccc(F)cc3C(=O)N(C(C)C)S2(=O)=O)cc1 [Compound 197] | 3 (Level 3: growth control rate is greater than or equal to 40% and less than 60%) | 0 (Level 0: growth control rate is less than 5%) | 0 (Level 0: growth control rate is less than 5%) | 0 (Level 0: growth control rate is less than 5%) | – | – | –
2 | CC(C)N1C(=O)c2cc(F)cc(F)c2N(C(=O)N(C)C)S1(=O)=O [Compound 223] | 5 (Level 5: growth control rate is above 85%) | 0 (Level 0: growth control rate is less than 5%) | 0 (Level 0: growth control rate is less than 5%) | – | 5 (Level 5: growth control rate is above 85%) | 3 (Level 3: growth control rate is greater than or equal to 40% and less than 60%) | 5 (Level 5: growth control rate is above 85%)
3 | CCS(=O)(=O)N1c2ccc(F)cc2C(=O)N(C(C)C)S1(=O)=O [Compound 195] | 3 (Level 3: growth control rate is greater than or equal to 40% and less than 60%) | 0 (Level 0: growth control rate is less than 5%) | 0 (Level 0: growth control rate is less than 5%) | 0 (Level 0: growth control rate is less than 5%) | – | 3 (Level 3: growth control rate is greater than or equal to 40% and less than 60%) | –
4 | CCOC(=O)OC(C)N1c2c(Cl)cc(F)cc2C(=O)N(C(C)C)S1(=O)=O (stereo not shown) [Compound 153] | 5 (Level 5: growth control rate is above 85%) | 0 (Level 0: growth control rate is less than 5%) | 0 (Level 0: growth control rate is less than 5%) | 1 (Level 1: growth control rate is greater than or equal to 500 and less than 200%) | 5 (Level 5: growth control rate is above 85%) | 5 (Level 5: growth control rate is above 85%) | 5 (Level 5: growth control rate is above 85%)
5 | CCC(=O)N1c2ccc(F)cc2C(=O)N(C(C)C)S1(=O)=O [Compound 179] | 5 (Level 5: growth control rate is above 85%) | 0 (Level 0: growth control rate is less than 5%) | 1 (Level 1: growth control rate is greater than or equal to 500 and less than 200%) | 1 (Level 1: growth control rate is greater than or equal to 500 and less than 200%) | – | 5 (Level 5: growth control rate is above 85%) | 3 (Level 3: growth control rate is greater than or equal to 40% and less than 60%)
6 | C=CC(=O)N1c2ccc(F)cc2C(=O)N(C(C)C)S1(=O)=O [Compound 183] | 3 (Level 3: growth control rate is greater than or equal to 40% and less than 60%) | 0 (Level 0: growth control rate is less than 5%) | 0 (Level 0: growth control rate is less than 5%) | 0 (Level 0: growth control rate is less than 5%) | – | – | –
7 | CCOC(=O)OC(C)N1c2ccc(F)cc2C(=O)N(C(C)C)S1(=O)=O (stereo not shown) [Compound 64] | 5 (Level 5: growth control rate is above 85%) | 0 (Level 0: growth control rate is less than 5%) | 0 (Level 0: growth control rate is less than 5%) | 0 (Level 0: growth control rate is less than 5%) | 3 (Level 3: growth control rate is greater than or equal to 40% and less than 60%) | 4 (Level 4: growth control rate is greater than or equal to 60% and less than 85%) | 3 (Level 3: growth control rate is greater than or equal to 40% and less than 60%)
8 | CC(C)N1C(=O)c2cc(I)ccc2NS1(=O)=O [C, reference compound] | 0 (Level 0: growth control rate is less than 5%) | 0 (Level 0: growth control rate is less than 5%) | 0 (Level 0: growth control rate is less than 5%) | 0 (Level 0: growth control rate is less than 5%) | 0 (Level 0: growth control rate is less than 5%) | 0 (Level 0: growth control rate is less than 5%) | 0 (Level 0: growth control rate is less than 5%)
9 | CCCS(=O)(=O)N1c2c(F)cc(F)cc2C(=O)N(C(C)C)S1(=O)=O [Compound 229] | 3 (Level 3: growth control rate is greater than or equal to 40% and less than 60%) | 1 (Level 1: growth control rate is greater than or equal to 500 and less than 200%) | – | – | – | – | –
10 | CCC(=O)N1c2c(F)cc(F)cc2C(=O)N(C(C)C)S1(=O)=O [Compound 214] | 5 (Level 5: growth control rate is above 85%) | 0 (Level 0: growth control rate is less than 5%) | – | – | 5 (Level 5: growth control rate is above 85%) | 4 (Level 4: growth control rate is greater than or equal to 60% and less than 85%) | 5 (Level 5: growth control rate is above 85%)
11 | CC(C)N1C(=O)c2cccc(F)c2NS1(=O)=O [D, reference compound] | 2 (Level 2: growth control rate is greater than or equal to 20% and less than 40%) | 0 (Level 0: growth control rate is less than 5%) | 0 (Level 0: growth control rate is less than 5%) | 1 (Level 1: growth control rate is greater than or equal to 500 and less than 200%) | 1 (Level 1: growth control rate is greater than or equal to 500 and less than 200%) | 1 (Level 1: growth control rate is greater than or equal to 500 and less than 200%) | 2 (Level 2: growth control rate is greater than or equal to 20% and less than 40%)
12 | CC(C)N1C(=O)c2cc(F)cc(Br)c2N(C(=O)C2CC2)S1(=O)=O [Compound 199] | 5 (Level 5: growth control rate is above 85%) | 0 (Level 0: growth control rate is less than 5%) | 1 (Level 1: growth control rate is greater than or equal to 500 and less than 200%) | – | – | – | 5 (Level 5: growth control rate is above 85%)
13 | COCC(=O)N1c2ccc(F)cc2C(=O)N(C(C)C)S1(=O)=O [Compound 185] | 3 (Level 3: growth control rate is greater than or equal to 40% and less than 60%) | 0 (Level 0: growth control rate is less than 5%) | 0 (Level 0: growth control rate is less than 5%) | 0 (Level 0: growth control rate is less than 5%) | – | – | –
14 | CCN1c2ccc(F)cc2C(=O)N(C(C)C)S1(=O)=O [Compound 176] | 5 (Level 5: growth control rate is above 85%) | 0 (Level 0: growth control rate is less than 5%) | 0 (Level 0: growth control rate is less than 5%) | 0 (Level 0: growth control rate is less than 5%) | – | – | –
15 | CC(C)N1C(=O)c2cc(F)ccc2N(C(=O)C(C)(C)C)S1(=O)=O [Compound 182] | 3 (Level 3: growth control rate is greater than or equal to 40% and less than 60%) | 0 (Level 0: growth control rate is less than 5%) | 0 (Level 0: growth control rate is less than 5%) | 0 (Level 0: growth control rate is less than 5%) | – | – | –
